Experimental data as given in US20150273013A1, “AGONISTS OF GUANYLATE CYCLASE USEFUL FOR THE TREATMENT OF GASTROINTESTINAL DISORDERS, INFLAMMATION, CANCER AND OTHER DISORDERS” (Synergy Pharmaceuticals, Inc., priority 2014, published 2015).
Bridges are numbered along the chain shown (N, C = ends). Where no end group is shown, it is not given here. [ ]: non-standard residue; d: D form.

How the values were obtained:
[1] = tested on: colitis in murine models; details: oral treatment, Shailubhai et al. 2009; cited from earlier work
[2] = tested on: non-inflammatory partial restraint stress induced hypersensitivity to colorectal distension (CRD); experiment: Partial restraint stress induced hypersensitivity to colorectal distension, oral treatment; assay type: in vivo, rat; details: partial restraint stress model, oral doses of 0.01 and 0.05 mg/kg; for number of abdominal contractions in response to CRD: intracolonic distension pressures between 15 and 60 mm Hg
Method: (§1) Oral Treatment with Plecanatide and Sp-333, Agonists of Guanylate Cyclase-C, Attenuates Visceral Hypersensitivity in Rat Models
(§2) Oral treatment with plecanatide (Asn Asp Glu Cys Glu Leu Cys Val Asn Val Ala Cys Thr Gly Cys Leu) or SP-333 (dAsn Asp Glu Cys Glu Leu Cys Val Asn Val Ala Cys Thr Gly Cys dLeu), homologues of UG, was evaluated in rodent models of inflammatory (TNBS) and non-inflammatory partial restraint stress induced hypersensitivity to colorectal distension (CRD).

[3] = tested on: inflammatory (TNBS) induced hypersensitivity to colorectal distension (CRD); experiment: TNBS (inflammatory) induced hypersensitivity to colorectal distension, oral treatment; assay type: in vivo, rat; details: for colonic wall elasticity / number of abdominal contractions in response to CRD: TNBS model, oral doses of 0.01 and 0.05 mg/kg; for number of abdominal contractions in response to CRD: intracolonic distension pressures between 15 and 60 mm Hg; for colonic volume adaptation to increasing pressure: after TNBS instillation, pressures between 15 and 60 mm Hg
Method: as §1, §2

Substance	effect on colitis [1]	colonic wall elasticity [2]	number of abdominal contractions in response to CRD [2]	colonic wall elasticity [3]	number of abdominal contractions in response to CRD [3]	colonic volume adaptation to increasing pressure [3]
Asn Asp Glu Cys Glu Leu Cys Val Asn Val Ala Cys Thr Gly Cys Leu (NDECELCVNVACTGCL; disulfide 4-12, 7-15) [plecanatide, GC-C agonist, homologue of uroguanylin, (C4:C12, C7:C15) bicycle peptide]	ameliorate colitis	without significantly altering	effectively reduced	without significantly altering	effectively reduced	reduced
dAsn Asp Glu Cys Glu Leu Cys Val Asn Val Ala Cys Thr Gly Cys dLeu ([dN]DECELCVNVACTGC[dL]; disulfide 4-12, 7-15) [SP-333, GC-C agonist, homologue of uroguanylin, (C4:C12, C7:C15) bicycle peptide]	ameliorate colitis	without significantly altering	effectively reduced	without significantly altering	effectively reduced	reduced
